Test system: 439559-082-T-J2-PDC spheroid viability
Experiment: Anticancer human tumor 439559-082-T-J2-PDC patient-derived colon adenocarcinoma cell line growth inhibition [POLQ]
Conditions: spheroids with HUVEC and MSC; for IC50: curve of first compound; for viability, T/C: stronger effect = lower value
Procedure, shortened: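 PDC + HUVEC + MSC complex spheroids; POLQ inhibitors ± partner drugs; top conc. at/near clinical Cmax, else 10 microM (SN-38 1 microM), half-log dilutions; 37 degrees C, 5% CO2.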

[1] = second compound 0.0316 µM, first compound 0.0316 µM
[2] = second compound 0.0316 µM, first compound 0.1 µM
[3] = second compound 0.1 µM, first compound 0.0316 µM
[4] = second compound 0.1 µM, first compound 0.1 µM
[5] = second compound 0.316 µM, first compound 0.0316 µM
[6] = second compound 0.316 µM, first compound 0.1 µM
[7] = second compound 1 µM, first compound 0.0316 µM
[8] = second compound 1 µM, first compound 0.1 µM
[9] = second compound 3.16 µM, first compound 0.0316 µM
[10] = second compound 3.16 µM, first compound 0.1 µM
[11] = second compound 10 µM, first compound 0.0316 µM
[12] = second compound 10 µM, first compound 0.1 µM
[13] = second compound 0.0316 µM, first compound 0.316 µM
[14] = second compound 0.0316 µM, first compound 1 µM
[15] = second compound 0.0316 µM, first compound 3.16 µM
[16] = second compound 0.0316 µM, first compound 10 µM
[17] = second compound 0.1 µM, first compound 0.316 µM
[18] = second compound 0.1 µM, first compound 1 µM
[19] = second compound 0.1 µM, first compound 3.16 µM
[20] = second compound 0.1 µM, first compound 10 µM
[21] = second compound 0.316 µM, first compound 0.316 µM
[22] = second compound 0.316 µM, first compound 1 µM
[23] = second compound 0.316 µM, first compound 3.16 µM
[24] = second compound 0.316 µM, first compound 10 µM
[25] = second compound 1 µM, first compound 0.316 µM
[26] = second compound 1 µM, first compound 1 µM
[27] = second compound 1 µM, first compound 3.16 µM
[28] = second compound 1 µM, first compound 10 µM
[29] = second compound 3.16 µM, first compound 0.316 µM
[30] = second compound 3.16 µM, first compound 1 µM
[31] = second compound 3.16 µM, first compound 3.16 µM
[32] = second compound 3.16 µM, first compound 10 µM
[33] = second compound 10 µM, first compound 0.316 µM
[34] = second compound 10 µM, first compound 1 µM
[35] = second compound 10 µM, first compound 3.16 µM
[36] = second compound 10 µM, first compound 10 µM
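Note: spheroids exposed to compounds for seven days before readout.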
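Throughout, for viability, T/C: 100% = DMSO vehicle control viability.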

CC[C@@]1(O)C(=O)OCc2c1cc1n(c2=O)Cc2cc3c(CN(C)C)c(O)ccc3nc2-1 + Cc1cccc(N(C)C(=O)C2C(O)CCN2c2nc(C)cc(C(F)(F)F)c2C#N)c1
IC50 (second compound 0.0316 µM): > 0.1 µM | IC50 (second compound 0.1 µM): > 0.1 µM | IC50 (second compound 0.316 µM): > 0.1 µM | IC50 (second compound 1 µM): > 0.1 µM | IC50 (second compound 3.16 µM): > 0.1 µM | IC50 (second compound 10 µM): > 0.1 µM | viability, T/C (second compound 0.0316 µM, first compound 0.000316 µM): 94.1% | viability, T/C (second compound 0.0316 µM, first compound 0.001 µM): 101% | viability, T/C (second compound 0.0316 µM, first compound 0.00316 µM): 96% | viability, T/C (second compound 0.0316 µM, first compound 0.01 µM): 97.2% | viability, T/C [1]: 92.2% | viability, T/C [2]: 85% | viability, T/C (second compound 0.1 µM, first compound 0.000316 µM): 113% | viability, T/C (second compound 0.1 µM, first compound 0.001 µM): 105% | viability, T/C (second compound 0.1 µM, first compound 0.00316 µM): 93.7% | viability, T/C (second compound 0.1 µM, first compound 0.01 µM): 103% | viability, T/C [3]: 97.3% | viability, T/C [4]: 79.1% | viability, T/C (second compound 0.316 µM, first compound 0.000316 µM): 98.1% | viability, T/C (second compound 0.316 µM, first compound 0.001 µM): 112% | viability, T/C (second compound 0.316 µM, first compound 0.00316 µM): 94.9% | viability, T/C (second compound 0.316 µM, first compound 0.01 µM): 89.8% | viability, T/C [5]: 84.9% | viability, T/C [6]: 83.4% | viability, T/C (second compound 1 µM, first compound 0.000316 µM): 104% | viability, T/C (second compound 1 µM, first compound 0.001 µM): 96.5% | viability, T/C (second compound 1 µM, first compound 0.00316 µM): 93.1% | viability, T/C (second compound 1 µM, first compound 0.01 µM): 93% | viability, T/C [7]: 90.3% | viability, T/C [8]: 80.9% | viability, T/C (second compound 3.16 µM, first compound 0.000316 µM): 96.2% | viability, T/C (second compound 3.16 µM, first compound 0.001 µM): 101% | viability, T/C (second compound 3.16 µM, first compound 0.00316 µM): 98.9% | viability, T/C (second compound 3.16 µM, first compound 0.01 µM): 93.5% | viability, T/C [9]: 89.9% | viability, T/C [10]: 76.5% | viability, T/C (second compound 10 µM, first compound 0.000316 µM): 93.2% | viability, T/C (second compound 10 µM, first compound 0.001 µM): 89.4% | viability, T/C (second compound 10 µM, first compound 0.00316 µM): 92.8% | viability, T/C (second compound 10 µM, first compound 0.01 µM): 91.6% | viability, T/C [11]: 90.3% | viability, T/C [12]: 75%

O=c1[nH]cc(F)c(=O)[nH]1 + Nc1ccc(C#CCN(C(=O)Cc2ncc(C(F)(F)F)cc2C(F)(F)F)c2ccc(F)cc2)nn1
IC50 (second compound 0.0316 µM): > 10 µM | IC50 (second compound 0.1 µM): > 10 µM | IC50 (second compound 0.316 µM): > 10 µM | IC50 (second compound 1 µM): > 10 µM | IC50 (second compound 3.16 µM): > 10 µM | IC50 (second compound 10 µM): > 10 µM | viability, T/C [1]: 105% | viability, T/C [2]: 112% | viability, T/C [13]: 101% | viability, T/C [14]: 98% | viability, T/C [15]: 90.2% | viability, T/C [16]: 87.5% | viability, T/C [3]: 115% | viability, T/C [4]: 97.4% | viability, T/C [17]: 91.4% | viability, T/C [18]: 92% | viability, T/C [19]: 86.5% | viability, T/C [20]: 82.5% | viability, T/C [5]: 116% | viability, T/C [6]: 104% | viability, T/C [21]: 105% | viability, T/C [22]: 95.9% | viability, T/C [23]: 83.1% | viability, T/C [24]: 85.3% | viability, T/C [7]: 104% | viability, T/C [8]: 94.8% | viability, T/C [25]: 101% | viability, T/C [26]: 81.9% | viability, T/C [27]: 84.5% | viability, T/C [28]: 81.4% | viability, T/C [9]: 103% | viability, T/C [10]: 99.9% | viability, T/C [29]: 84.2% | viability, T/C [30]: 85.5% | viability, T/C [31]: 86.6% | viability, T/C [32]: 80.5% | viability, T/C [11]: 109% | viability, T/C [12]: 91.3% | viability, T/C [33]: 102% | viability, T/C [34]: 83.4% | viability, T/C [35]: 87.9% | viability, T/C [36]: 78.7%

CC1COCCN1c1cc(C2(O)CC3CCC(C2)O3)c2cnn(-c3ccn[nH]3)c2n1 (stereo not given) + Cc1cccc(N(C)C(=O)C2C(O)CCN2c2nc(C)cc(C(F)(F)F)c2C#N)c1
IC50 (second compound 0.0316 µM): 3.84 µM | IC50 (second compound 0.1 µM): 5.32 µM | IC50 (second compound 0.316 µM): 3.18 µM | IC50 (second compound 1 µM): 4.98 µM | IC50 (second compound 3.16 µM): 2.87 µM | IC50 (second compound 10 µM): 2.93 µM | viability, T/C [1]: 96.4% | viability, T/C [2]: 79.1% | viability, T/C [13]: 71.1% | viability, T/C [14]: 60.9% | viability, T/C [15]: 47.7% | viability, T/C [16]: 46.4% | viability, T/C [3]: 95.6% | viability, T/C [4]: 86.1% | viability, T/C [17]: 66% | viability, T/C [18]: 60.1% | viability, T/C [19]: 49.3% | viability, T/C [20]: 49% | viability, T/C [5]: 94.5% | viability, T/C [6]: 79.4% | viability, T/C [21]: 70.2% | viability, T/C [22]: 57% | viability, T/C [23]: 48.4% | viability, T/C [24]: 46.6% | viability, T/C [7]: 95.5% | viability, T/C [8]: 78.4% | viability, T/C [25]: 69.3% | viability, T/C [26]: 61% | viability, T/C [27]: 51.5% | viability, T/C [28]: 46.8% | viability, T/C [9]: 91.3% | viability, T/C [10]: 80.8% | viability, T/C [29]: 66.7% | viability, T/C [30]: 57% | viability, T/C [31]: 48.9% | viability, T/C [32]: 46.1% | viability, T/C [11]: 80.9% | viability, T/C [12]: 73.7% | viability, T/C [33]: 65.5% | viability, T/C [34]: 55.6% | viability, T/C [35]: 51.6% | viability, T/C [36]: 41.1%

COc1ccc([C@@H](O)c2cc(-c3ncnc4cc(N5CCOCC5)ccc34)c(F)cc2Cl)nn1 + Nc1ccc(C#CCN(C(=O)Cc2ncc(C(F)(F)F)cc2C(F)(F)F)c2ccc(F)cc2)nn1
IC50 (second compound 0.0316 µM): > 10 µM | IC50 (second compound 0.1 µM): > 10 µM | IC50 (second compound 0.316 µM): > 10 µM | IC50 (second compound 1 µM): > 10 µM | IC50 (second compound 3.16 µM): > 10 µM | IC50 (second compound 10 µM): > 10 µM | viability, T/C [1]: 105% | viability, T/C [2]: 86% | viability, T/C [13]: 89.1% | viability, T/C [14]: 89.4% | viability, T/C [15]: 84% | viability, T/C [16]: 87.5% | viability, T/C [3]: 102% | viability, T/C [4]: 93.2% | viability, T/C [17]: 92.7% | viability, T/C [18]: 88.1% | viability, T/C [19]: 78% | viability, T/C [20]: 87.3% | viability, T/C [5]: 119% | viability, T/C [6]: 105% | viability, T/C [21]: 104% | viability, T/C [22]: 79.5% | viability, T/C [23]: 88.9% | viability, T/C [24]: 81% | viability, T/C [7]: 95% | viability, T/C [8]: 106% | viability, T/C [25]: 85.2% | viability, T/C [26]: 83.7% | viability, T/C [27]: 86.1% | viability, T/C [28]: 86.3% | viability, T/C [9]: 90.1% | viability, T/C [10]: 107% | viability, T/C [29]: 90.7% | viability, T/C [30]: 80.2% | viability, T/C [31]: 83.7% | viability, T/C [32]: 87.8% | viability, T/C [11]: 94.1% | viability, T/C [12]: 90% | viability, T/C [33]: 90.1% | viability, T/C [34]: 99.7% | viability, T/C [35]: 81.8% | viability, T/C [36]: 77.4%

COc1cc2cc(C(=O)CCC(=O)O)sc2cc1OC + Cc1cccc(N(C)C(=O)C2C(O)CCN2c2nc(C)cc(C(F)(F)F)c2C#N)c1
IC50 (second compound 0.0316 µM): > 10 µM | IC50 (second compound 0.1 µM): > 10 µM | IC50 (second compound 0.316 µM): > 10 µM | IC50 (second compound 1 µM): > 10 µM | IC50 (second compound 3.16 µM): > 10 µM | IC50 (second compound 10 µM): > 10 µM | viability, T/C [1]: 104% | viability, T/C [2]: 92.7% | viability, T/C [13]: 95.1% | viability, T/C [14]: 101% | viability, T/C [15]: 100% | viability, T/C [16]: 84.8% | viability, T/C [3]: 107% | viability, T/C [4]: 101% | viability, T/C [17]: 105% | viability, T/C [18]: 99% | viability, T/C [19]: 91.7% | viability, T/C [20]: 94.2% | viability, T/C [5]: 99.5% | viability, T/C [6]: 112% | viability, T/C [21]: 86.7% | viability, T/C [22]: 108% | viability, T/C [23]: 106% | viability, T/C [24]: 95.9% | viability, T/C [7]: 107% | viability, T/C [8]: 107% | viability, T/C [25]: 96.2% | viability, T/C [26]: 96.5% | viability, T/C [27]: 104% | viability, T/C [28]: 88.5% | viability, T/C [9]: 112% | viability, T/C [10]: 97.7% | viability, T/C [29]: 105% | viability, T/C [30]: 87.4% | viability, T/C [31]: 110% | viability, T/C [32]: 94.9% | viability, T/C [11]: 99% | viability, T/C [12]: 107% | viability, T/C [33]: 101% | viability, T/C [34]: 90.9% | viability, T/C [35]: 100% | viability, T/C [36]: 87.3%

— PubChem BioAssay AID1963841 (Molecular Pharmacology Branch, DTP, NCI, 2024)
